# Publication PMC8868346, “Novel Series of Dual NRF2 Inducers and Selective MAO-B Inhibitors for the Treatment of Parkinson’s Disease” (Antioxidants, 2022)
# Where two headings read alike, the source gives them in different places.
# Columns and labels:
# [1] = target: T1, hrMAO-B (Homo sapiens, UniProt P27338); experiment: Inhibition of monoamine oxidase B (Amplex UltraRed, tyramine); type: biochemical; settings: for Selectivity Index (MAO-A/MAO-B): ratio IC50 MAO-A/IC50 MAO-B
# T1 construct: purchased Sigma–Aldrich
# T1 sequence (P27338 1-520): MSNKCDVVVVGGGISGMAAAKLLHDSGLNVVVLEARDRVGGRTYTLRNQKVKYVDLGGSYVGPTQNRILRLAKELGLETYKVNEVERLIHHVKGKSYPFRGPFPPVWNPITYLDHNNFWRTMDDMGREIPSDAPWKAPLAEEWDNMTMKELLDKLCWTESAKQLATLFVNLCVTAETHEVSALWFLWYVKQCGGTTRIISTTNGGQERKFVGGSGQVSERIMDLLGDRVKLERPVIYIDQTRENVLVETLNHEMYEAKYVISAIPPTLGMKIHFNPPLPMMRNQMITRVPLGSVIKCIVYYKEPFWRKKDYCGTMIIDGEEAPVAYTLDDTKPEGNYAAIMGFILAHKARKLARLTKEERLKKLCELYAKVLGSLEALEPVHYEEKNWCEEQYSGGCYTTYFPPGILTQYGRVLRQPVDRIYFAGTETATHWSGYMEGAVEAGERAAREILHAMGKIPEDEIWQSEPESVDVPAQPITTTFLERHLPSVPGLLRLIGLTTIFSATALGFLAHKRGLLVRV
# [2] = tested on: NRF2; experiment: NRF2 induction, luciferase activity in AREc32 reporter cells; type: cell-based, human; settings: for EC50: Homo sapiens, 24 h, concentration required to double luciferase activity compared to basal, read-out: CD (µM) NRF2 Induction; for fold potentiation of NRF2 induction compared to the corresponding -OMe derivative: 11, 12 vs 10, 14, 15 vs 13
# Method: Cells were used from the third to twelfth passage.
# AREc32 cells were stably transfected with the plasmid pGL-8xARE that implements 8 copies of the antioxidant response element (ARE) sequences followed by luciferase reporter gen. Therefore, NRF2 induction can be related to the activation of ARE sequences by measuring luciferase activity in terms of luminescence production. For NRF2 induction experiments, cells were plated in 96 white flat bottom well plates (20,000 cells/well). After 24 h, cells were incubated with selected compounds at the desired concentrations in duplicates for 24 h. The Luciferase Assay System (Promega E1500) was used according to provider protocol and luminescence was quantified in an Orion II microplate luminometer (Berthold, Germany). Fold induction of luciferase activity was normalized to basal conditions. Data were expressed as CD values, which means the concentration needed to duplicate the luciferase activity compared to basal conditions. CD values were calculated from dose–response curves fitted by non-linear regression for each compound after logarithmic transformation of the data using GraphPad Prism 8.0 software.
# [3] = Oxygen radical absorbance capacity (ORAC) assay; settings: Trolox equivalents; AAPH, fluorescein
# Method: The ORAC test was performed to evaluate the oxygen free radical scavenger capacity of the compounds. […] Compounds at desired concentrations (0.03, 0.1, 0.3, 1, 3, and 10 µM) were diluted in phosphate-buffered saline (PBS; 10 mM, pH 7.4) at 37 °C and placed in a 96 black flat bottom well plate. […] A fluorescence measurement was done first to determine the basal signal. Then, 25 µL of 2, 2′-azobis-amidinopropane dihydrochloride (AAPH) (12 mM final concentration) was quickly added. All samples were measured in duplicates in three different experiments. […] Results were expressed in terms of Trolox equivalents (T.eq.), obtained by plotting net AUC versus compound concentration, then performing linear regression and normalizing slopes of the compounds considering Trolox as reference.
# [4] = tested on: nitrite production in mixed primary glial cultures; experiment: Nitrite production in LPS stimulated primary mixed glial cultures (Griess); type: cell-based; settings: Rattus norvegicus; 24 h pre-treatment, LPS 1 µg/mL 18 h; read-out: EC50 Nitrite Reduction
# Method: (§1) Cells were cultured for 7–10 days before treatment.
# (§2) Primary glial cells were pre-treated with compounds at the desired concentration for 24 h. Then, treatments were removed and glial cells were incubated with lipopolysaccharide (LPS, 1 μg/mL; Sigma–Aldrich, Spain) in the presence of each compound at the desired concentration for 18 h. Nitrite production was then assessed by modified Griess assay. Briefly, 150 µL of each sample was mixed with 75 µL of 4,4′-diamino-diphenylsulfone (Dapsone) and 75 µL of N-(1-naphthyl)ethylenediamine (Neda). The mixture was incubated at room temperature for 5 min. […] Data were normalized to basal conditions, setting this value as 100% of nitrite production. EC50 values were calculated from dose–response curves obtained from representing percentage of nitrites reduction vs. compound concentration.
# [5] = tested on: Mixed primary glial cultures; experiment: Cytotoxicity in mixed primary glial cultures (MTT); settings: MTT reduction
# Method: Mixed primary glial cultures were obtained from cerebral cortex of 2–5-day-old Sprague–Dawley rats. Blood vessels and meninges were first removed in Hank’s balanced salt solution (HBSS) and then forebrains were dissociated in DMEM/F12 medium. After mechanical dissociation, filtering, and centrifugation at 800 rpm for 10 min, cells were plated at a density of 30,000 cells/well in DMEM/F12 medium with 20% (v/v) FBS and 1% penicillin/streptomycin (10,000 units). […] After 5 days, medium was substituted by DMEM/F12 medium with 10% (v/v) FBS. Cells were cultured for 7–10 days before treatment.
# Basal absorbance was set to 100% and results were normalized to basal conditions.
# Cytotoxicity. LD50 values in several cell cultures employed
# Table S2. Cytotoxicity elicited by 10-18 compounds in SH-SY5Y, AREc32 and mixed pr imary glial cultures. Viability was measured as MTT reduction in presence of increasing concentrations of der ivatives. LD50 values were calcula ted from dose-response curves. Data are expr essed as mean ± SEM of at least 3 independent experiments.
# 1.3. PAMPA control compounds (BBB permeability)
# Table S3. Pr ediction of the BBB passive permeability of control compounds
# [6] = tested on: IL-1β; experiment: IL-1β levels by ELISA in LPS stimulated primary mixed glial cultures; type: cell-based, rat; settings: compound 10 μM; LPS 1 µg/mL 18 h
# Method: as §1, §2
# Supernatants obtained from mixed primary glial cell cultures were used to determine IL-1β levels by quantitative ELISA kits (Preprotech, R&D Systems-bioNova, Madrid, Spain) following the manufacturer’s instructions. Commercial solution of IL-1β was used to generate a standard curve for sample quantification. Absorbance was measured in a microplate reader SPECTROstar Nano (BMG Labtech) at 405 with 650 nm correction.
# [7] = Blood–brain barrier permeation assay (PAMPA); settings: BBB permeability class from Pe
# Method: Briefly, permeability of the compounds was measured at an initial concentration of 100 µM, including positive and negative controls (Supplementary Data; Table S3). […] After 5 min, 180 µL of each compound solution in PBS (10 mM, pH 7.4) was added to determine their ability to pass the membrane (VD). The 96-well acceptor plate (Multiscreen, Millipore Corp., Madrid Spain) was loaded with 180 µL of PBS (VA). Then, the donor filter plate was carefully placed on the acceptor plate to form a sandwich-like system, which was left undisturbed for 4 h at room temperature. After incubation, the donor plate was removed and the absorbance at the maximum absorption wavelength for each compound was recorded in both the acceptor and donor wells (150 µL/well) using a UV plate reader SPECTROstar Nano (BMG Labtech, Ortenberg, Germany). Concentration of the compounds in the donor and acceptor plates and equilibrium concentration were calculated and expressed as permeability (Pe) according the Equation (1). Results are expressed as mean ± standard error of the mean (SEM) of at least three different experiments in duplicate:(1) logPe =log{C×−ln(1−[drug]acceptor/[drug]equilibrium)} where C=(VD×VA/(VD +VA)×Area×Time) .
# [8] = tested on: SH-SY5Y cells; experiment: Neuroprotection in SH-SY5Y against rotenone/oligomycin A (MTT); type: cell-based, human; settings: compound 0.1 µM, 24 h pre- and 24 h co-incubation
# Method: Cells were seeded at a density of 60,000 cells/well in 96-well transparent plates for 24 h. Then cells were pre-incubated with the corresponding compound at 0.1 μM. After 24 h, the medium was removed and replaced with 1% (v/v) FBS media containing the corresponding compound at 0.1 µM and the selected toxic stimuli, namely a mixture of rotenone and oligomycin A (R/O; 30/10 μM, respectively; Sigma–Aldrich, Spain) or 6-hydroxydopamine (100 µM; Sigma–Aldrich, Spain). […].
# [9] = 30 min pre-incubation, 37 °C, read-out: IC50 MAO-B
Compound,IC50 [1] [µM],Selectivity Index (MAO-A/MAO-B) [1],EC50 ([2]; AREc32 cells) [µM],ORAC (T. eq.) [3] [T. eq.],EC50 [4] [µM],LD50 (µM) Mixed primary glial cultures [5] [µM],IL-1β Levels % Reduction (10 μM) [6] [%],PAMPA Prediction [7],R/O (30/10 µM) Protection (%) [8] [%],"IC50 [1, 9] [µM]",fold potentiation of NRF2 induction compared to the corresponding -OMe derivative [2] [fold],"luciferase activity (NRF2 induction) dose–response ([2]; AREc32 cells, 24 h, 3, 5, and 10 µM)",MAO isozyme selectivity ([1]; MAO-B vs MAO-A)
"C#CCN(CC#C)CCc1c[nH]c2ccc(OC)cc12 [Compound 13, N-(2-(5-Methoxy-1H-indol-3-yl)ethyl)-N-(prop-2-yn-1-yl)prop-2-yn-1-amine]",89.1 ± 4.3,>1.12,13.9 ± 1.5,2.09 ± 0.11,12.6 ± 0.53,> 30,67.4 ± 5.80,CNS + (CNS + (high BBB permeability): Pe (10^−6 cm s^−1) > 4.0),42.7,,,,
"C#CCN(CC#C)CCc1c[nH]c2ccc(OC(=O)C=Cc3ccccc3)cc12 [Compound 14, 3-(2-(Di(prop-2-yn-1-yl)amino)ethyl)-1H-indol-5-yl Cinnamate]",,,5.07 ± 0.23,1.98 ± 0.15,19.4 ± 1.4,> 30,41.1 ± 1.7,CNS + (CNS + (high BBB permeability): Pe (10^−6 cm s^−1) > 4.0),53.3,17 ± 1.6,3,significantly increasing luciferase activity,
"C#CCNCCc1c[nH]c2ccc(OC)cc12 [Compound 10, N-(2-(5-Methoxy-1H-indol-3-yl)ethyl)prop-2-yn-1-amine]",77.6 ± 9.1,0.0106,20.9 ± 2.2,2.47 ± 0.13,16.2 ± 2.5,> 30,68.4 ± 4.9,CNS + (CNS + (high BBB permeability): Pe (10^−6 cm s^−1) > 4.0),44.6,,,,MAO-A selectivity
"C#CCN(CC#C)CCc1c[nH]c2ccc(OC(=O)/C=C/c3ccc(C)cc3)cc12 [Compound 15, 3-(2-(Di(prop-2-yn-1-yl)amino)ethyl)-1H-indol-5-yl-(E)-3-(p-tolyl) Acrylate]",,,5.76 ± 0.07,1.74 ± 0.10,22.9 ± 3.3,> 30,60.5 ± 3.50,CNS + (CNS + (high BBB permeability): Pe (10^−6 cm s^−1) > 4.0),36.4,28.1 ± 0.6,3,,
